In patent US20230183292A1, “IMMUNOMODULATORS” (priority 2020, published 2023):
Where two headings read alike, the source gives them in different places. Positions of bridges follow the written chain, without caps; N, C: chain ends. Non-standard residues stand in square brackets, D forms with d. Residues, ends and D or L forms follow the SMILES beside them. *: point of attachment. X21 = CC[C@H]1[C@@H](O)[C@@H]2[C@H](CC[C@]3(C)[C@@H]([C@H](C)CCC(=O)*)CC[C@@H]23)[C@@]2(C)CC[C@@H](O)C[C@@H]12; Cholesteryloxycarbonyl = CC(C)CCC[C@@H](C)[C@H]1CC[C@H]2[C@@H]3CC=C4C[C@@H](OC(=O)*)CC[C@]4(C)[C@H]3CC[C@]12C; Chenodeoxycholyl = C[C@H](CCC(=O)*)[C@H]1CC[C@H]2[C@@H]3[C@H](O)C[C@@H]4C[C@H](O)CC[C@]4(C)[C@H]3CC[C@]12C; Cholyl = C[C@H](CCC(=O)*)[C@H]1CC[C@H]2[C@@H]3[C@H](O)C[C@@H]4C[C@H](O)CC[C@]4(C)[C@H]3C[C@H](O)[C@]12C; Trp(1-CH2CO2Me) = COC(=O)Cn1cc(C[C@H](N)C(=O)O)c2ccccc21; Trp(1-CH2COOH) = N[C@@H](Cc1cn(CC(=O)O)c2ccccc12)C(=O)O; Hyp = O=C(O)[C@@H]1C[C@@H](O)CN1; NMeNle = CCCC[C@H](NC)C(=O)O; NMeA = CN[C@@H](C)C(=O)O; Dab = NCC[C@H](N)C(=O)O; Dap = NC[C@H](N)C(=O)O

Molecular target: T1, PD-1/PD-L1 (Homo sapiens, UniProt Q9NZQ7)
T1 construct: TVMV protease site (C); made in house; host or cells: HEK293T cells
Experiment: PD-1/PD-L1 Homogenous Time-Resolved Fluorescence (HTRF) binding assay
Settings: PD-1-Ig 20 nM
Text: The ability of the compounds of formula (I) to bind to PD-L1 was investigated using a PD-1/PD-L1 Homogenous Time-Resolved Fluorescence (HTRF) binding assay.
The interaction of PD-1 and PD-L1 can be assessed using soluble, purified preparations of the extracellular domains of the two proteins. The PD-1 and PD-L1 protein extracellular domains were expressed as fusion proteins with detection tags, for PD-1, the tag was the Fc portion of Immunoglobulin (PD-1-Ig) and for PD-L1 it was the 6 histidine motif (PD-L1-His). All binding studies were performed in an HTRF assay buffer consisting of dPBS supplemented with 0.1% […] bovine serum albumin and 0.05% (v/v) Tween-20. For the h/PD-L1-His binding assay, inhibitors were pre-incubated with PD-L1-His (10 nM final) for 15 m in 4 μl of assay buffer, followed by addition of PD-1-Ig (20 nM final) in 1 μl of assay buffer and further incubation for 15 m. HTRF detection was achieved using europium crypate-labeled anti-Ig (1 nM final) and allophycocyanin (APC) labeled anti-His (20 nM final). Antibodies were diluted in HTRF detection buffer and 5 μl was dispensed on top of the binding reaction. The reaction mixture was allowed to equilibrate for 30 minutes and the resulting signal (665 nm/620 nm ratio) was obtained using an EnVision fluorometer. Additional binding assays were established between the human proteins PD-1-Ig/PD-L2-His (20 & 5 nM, respectively) and CD80-His/PD-L1-Ig (100 & 10 nM, respectively).
Recombinant Proteins: Human PD-1 (25-167) with a C-terminal human Fc domain of immunoglobulin G (Ig) epitope tag [hPD-1 (25-167)-3S-IG] and human PD-L1 (18-239) with a C-terminal His epitope tag [hPD-L1(18-239)-TVMV-His] were expressed in HEK293T cells and purified sequentially by ProteinA affinity chromatography and size exclusion chromatography. Human PD-L2-His and CD80-His was obtained through commercial sources.
Table 1 lists the IC50 values for representative examples of this disclosure measured in the PD-1/PD-L1 Homogenous Time-Resolved Fluorescence (HTRF) binding assay.

[1] = PD-L1-His 10 nM, read-out: HTRF IC50

T1 sequence (Q9NZQ7 18-239): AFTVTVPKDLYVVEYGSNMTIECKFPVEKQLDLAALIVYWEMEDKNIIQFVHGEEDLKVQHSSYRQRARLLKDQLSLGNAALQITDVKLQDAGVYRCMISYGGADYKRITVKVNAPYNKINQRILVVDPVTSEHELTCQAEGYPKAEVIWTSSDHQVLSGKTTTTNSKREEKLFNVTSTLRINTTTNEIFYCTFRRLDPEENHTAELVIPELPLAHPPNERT

Structure (SMILES) | IC50 [1] [nM] | IC50 (HTRF IC50, PD-L1-His 10 nM) [nM]
CCCC[C@H]1C(=O)N(C)[C@@H](CCCC)C(=O)N[C@@H](CC(C)C)C(=O)N[C@H](C(=O)NCC(N)=O)CSCC(=O)N[C@@H](Cc2ccc(O)cc2)C(=O)N(C)[C@@H](C)C(=O)N[C@@H](CC(N)=O)C(=O)N2CCC[C@H]2C(=O)N[C@@H](CNC(=O)CC[C@@H](C)[C@H]2CC[C@H]3[C@@H]4[C@H](O)C[C@@H]5C[C@H](O)CC[C@]5(C)[C@H]4C[C@H](O)[C@]23C)C(=O)N[C@@H](CC(C)C)C(=O)N2C[C@H](O)C[C@H]2C(=O)N[C@@H](Cc2c[nH]c3ccccc23)C(=O)N[C@@H](CCN)C(=O)N[C@@H](Cc2cn(CC(=O)OC)c3ccccc23)C(=O)N1C [Example 1011] ({CH2CO}-Y[NMeA]NP[Dap](Cholyl)L[Hyp]W[Dab][Trp(1-CH2CO2Me)][NMeNle][NMeNle]LCG-NH2; thioether N-14) | 6.3 | 
CCCC[C@H]1C(=O)N(C)[C@@H](CCCC)C(=O)N[C@@H](CC(C)C)C(=O)N[C@H](C(=O)NCC(N)=O)CSCC(=O)N[C@@H](Cc2ccc(O)cc2)C(=O)N(C)[C@@H](C)C(=O)N[C@@H](CC(N)=O)C(=O)N2CCC[C@H]2C(=O)N[C@@H](CNC(=O)O[C@H]2CC[C@@]3(C)C(=CC[C@H]4[C@@H]5CC[C@H]([C@H](C)CCCC(C)C)[C@@]5(C)CC[C@@H]43)C2)C(=O)N[C@@H](CC(C)C)C(=O)N2C[C@H](O)C[C@H]2C(=O)N[C@@H](Cc2c[nH]c3ccccc23)C(=O)N[C@@H](CCN)C(=O)N[C@@H](Cc2cn(CC(=O)O)c3ccccc23)C(=O)N1C [Example 1012] ({CH2CO}-Y[NMeA]NP[Dap](Cholesteryloxycarbonyl)L[Hyp]W[Dab][Trp(1-CH2COOH)][NMeNle][NMeNle]LCG-NH2; thioether N-14) |  | 130
CCCC[C@H]1C(=O)N(C)[C@@H](CCCC)C(=O)N[C@@H](CC(C)C)C(=O)N[C@H](C(=O)NCC(N)=O)CSCC(=O)N[C@@H](Cc2ccc(O)cc2)C(=O)N(C)[C@@H](C)C(=O)N[C@@H](CC(N)=O)C(=O)N2CCC[C@H]2C(=O)N[C@@H](CNC(=O)CC[C@@H](C)[C@H]2CC[C@H]3[C@@H]4[C@H](O)C[C@@H]5C[C@H](O)CC[C@]5(C)[C@H]4CC[C@]23C)C(=O)N[C@@H](CC(C)C)C(=O)N2C[C@H](O)C[C@H]2C(=O)N[C@@H](Cc2c[nH]c3ccccc23)C(=O)N[C@@H](CCNC(=O)CC[C@@H](C)[C@H]2CC[C@H]3[C@@H]4[C@H](O)C[C@@H]5C[C@H](O)CC[C@]5(C)[C@H]4CC[C@]23C)C(=O)N[C@@H](Cc2cn(CC(=O)O)c3ccccc23)C(=O)N1C [Example 1013] ({CH2CO}-Y[NMeA]NP[Dap](Chenodeoxycholyl)L[Hyp]W[Dab](Chenodeoxycholyl)[Trp(1-CH2COOH)][NMeNle][NMeNle]LCG-NH2; thioether N-14) | 460 | 
CCCC[C@H]1C(=O)N(C)[C@@H](CCCC)C(=O)N[C@@H](CC(C)C)C(=O)N[C@H](C(=O)NCC(N)=O)CSCC(=O)N[C@@H](Cc2ccc(O)cc2)C(=O)N(C)[C@@H](C)C(=O)N[C@@H](CC(N)=O)C(=O)N2CCC[C@H]2C(=O)N[C@@H](CNC(=O)CC[C@@H](C)[C@H]2CC[C@H]3[C@@H]4[C@H](O)[C@H](CC)[C@@H]5C[C@H](O)CC[C@]5(C)[C@H]4CC[C@]23C)C(=O)N[C@@H](CC(C)C)C(=O)N2C[C@H](O)C[C@H]2C(=O)N[C@@H](Cc2c[nH]c3ccccc23)C(=O)N[C@@H](CCNC(=O)CC[C@@H](C)[C@H]2CC[C@H]3[C@@H]4[C@H](O)[C@H](CC)[C@@H]5C[C@H](O)CC[C@]5(C)[C@H]4CC[C@]23C)C(=O)N[C@@H](Cc2cn(CC(=O)O)c3ccccc23)C(=O)N1C [Example 1014] ({CH2CO}-Y[NMeA]NP[Dap](X21)L[Hyp]W[Dab](X21)[Trp(1-CH2COOH)][NMeNle][NMeNle]LCG-NH2; thioether N-14) | 340 | 
